Results taken from patent US20200333357A1, “NOVEL TFEB PATHWAY AGONISTS FOR METABOLIC DISEASES AND AGEING” (The Board of Regents of the University of Texas System, priority 2017, published 2020).
“Also recorded” adds a separate entry of the source.

Legend:
HeLa cells = assay: Cellular ROS level (CellROX Green); format: cell-based, human; details: 4 hrs
Source text: SFIGS. 5A-I. Small-molecule activators of TFEB engage different sources of Ca. (SFIG. 5A) HeLa cells were pretreated with or without N-acetyl-cysteine (NAC) for 1 hr and then treated with tert-butyl hydroperoxide (TBHP) or AD for 4 hrs. TBHP and NAC were used as positive and negative controls. A ROS-sensitive DNA dye CellROX Green was used to detect cellular ROS levels after these treatments. Endogenous TFEB localization was also shown. (SFIG. 5B) Quantification of the fluorescent intensity of CellROX Green in cells treated as in a was done by a plate reader. (SFIG. 5C) Quantification of endogenous TFEB nuclear translocation in SFIG. 5A. (SFIG. 5D) Cells were pretreated with or without 25 μM IP3R inhibitor Xestosporine C (Xesto) for 1 hr and then treated with DG, AD and IKA for indicated time. Quantification of TFEB translocation was shown in SFIG. 5E-G (graphs represent mean±s.d. **p<0.01, ***p<0.001, ****p<0.0001). (SFIG. 5H-I) RNA-interference were used to knock down inositol […] receptor type 1 (IP3R1) in GFP-TFEB cells before they were treated with DG, AD and IKA. siLONRF1 was used as a negative control. TFEB translocation percentage was quantified from images as shown in SFIG. 5I (mean±s.d. for n=3 independent experiments, ****p<0.0001). Scale bar, 20 μm.

TFEB = assay: GFP-TFEB nuclear translocation (high-content screen, dose-response, confocal imaging); format: cell-based, human; details: for TFEB nuclear accumulation by AMPK activators: GFP-TFEB HeLa cells; for hit status in the TFEB screen overlapping with the autophagy (GFP-LC3) screen: compounds added for 4 hr, overlap with top 30 hits of autophagy screen
Procedure: GFP-TFEB HeLa cells were seeded in 384-well plates. Compounds were added for 4 hr the following day. Bafilomycin A1 (250 nM) treated cells were used as positive controls and DMSO-treated cells as negative controls. […] Images were collected using 405 nm and 488 nm laser lines with DAPI and FITC emission filters. Images were analyzed using the GE IN Cell Analyzer Workstation software. Briefly, nuclei were segmented using the Hoechst channel and the cytoplasm was segmented using the GFP channel. For each cell, the mean GFP intensity in each compartment was measured and used to calculate the nuclear to cytoplasmic (N/C) TFEB-GFP ratio. The same method as mentioned above was used to generate the top 30 compounds with highest condensed activity values and robust Z score values.
GFP-TFEB HeLa cells treated with compounds or DMSO were fixed and stained with Hoechst. Images from at least 3 different fields per sample were acquired using a 40× objective on a Zeiss confocal microscope and analyzed with ImageJ. 20-30 cells were evaluated from each image for each sample, and 3 independent experiments were performed to generate the graphed values.

mTORC1 = assay: TSC2 dependence of mTORC1 inhibition and TFEB activation in p53-/- and p53-/-, TSC2-/- MEFs; format: cell-based, mouse; details: p53-/- vs p53-/-
[1] = system: mice under fed and fast conditions; assay: Short-term starvation and chloroquine-induced acute hepatic lipid accumulation in mice; format: in vivo, mouse; details: overnight fast; CQ intraperitoneal; DG oral co-administration
Procedure: SFIGS. […] (SFIG. 6A) The body weight (left y-axis, solid symbols) and food intake (right y-axis, open symbols) measured in normal-diet-fed mice treated with vehicle or 2.5 mg/kg DG. (SFIG. 6B) Drug release curves of AD (upper panel) and IKA (lower panel) in PBS. […] (SFIG. 6F) Cells were treated with various doses DG, AD and IKA for 4 hours, and cell viability was measured immediately or after 72 hours. Dose response curves were simulated using ImageJ. (SFIG. 6G) H&E staining of heart, spleen and kidney sections from mice treated with DG, AD, IKA and their corresponding controls. Scale bar, 100 μm. (SFIG. 6H) H&E staining of liver and heart sections as well as ORO and p62/SQSTM1 IHC staining of liver sections from mice under fed and fast conditions with orally injected DG and intraperitoneally injected CQ, individually and jointly, or their corresponding control (Saline). Scale bar, 50 μm. (SFIG. 6I) The body weight of mice after the treatment described in SFIG. 6H. (SFIGS. 6J-L) Total serum levels of triglyceride, cholesterol and glucose of mice after the treatment described in SFIG. 6G.

SMILES	TFEB nuclear accumulation by AMPK activators (TFEB)	hit status in the TFEB screen overlapping with the autophagy (GFP-LC3) screen (TFEB)	further results
CC(C)(C)OO [TBHP, tert-Butyl hydroperoxide, reference compound]			ROS production (HeLa cells): comparable ROS production
NC(=O)c1ncn([C@@H]2O[C@H](COP(=O)(O)O)[C@@H](O)[C@H]2O)c1N [AICAR, 5-aminoimidazole-4-carboxamide ribonucleotide, reference compound]	sufficient to induce TFEB nuclear accumulation		
C[C@@H]1C[C@@H]([C@H](O)CC2CC(=O)NC(=O)C2)C(=O)[C@@H](C)C1 [cycloheximide, reference compound]		top 18 hits	
C[C@@H]1O[C@@H](O[C@@H]2C=C3CC[C@@H]4[C@H](CC[C@]5(C)[C@@H](c6ccc(=O)oc6)CC[C@]45O)[C@@]3(C)CC2)[C@H](O)[C@H](O)[C@H]1O [proscillaridin A, reference compound]		top 18 hits; also recorded: top scoring hits	dependence of mTORC1 inhibition / TFEB activation on TSC2 (mTORC1): independent
CCN(CC)CCCC(C)Nc1ccnc2cc(Cl)ccc12 (stereo not shown) [CQ, chloroquine]			fast-induced hepatic lipid accumulation [1]: exacerbated
CN(C)C(=N)N=C(N)N [metformin, reference compound]	sufficient to induce TFEB nuclear accumulation		
